Here are results for one compound from article PMC11031590, “Narazaciclib, a novel multi-kinase inhibitor with potent activity against CSF1R, FLT3 and CDK6, shows strong anti-AML activity in defined preclinical models” (Scientific Reports, 2024).

Molecules are shown by their SMILES.

One experiment relates to AML cell lines. Nature of the experiment: In vitro proliferation assay, panel of 33 AML cell lines (summary statements). The settings on record: a subset of AML lines; read-out: IC50 growth inhibition. Type of experiment: cell-based. As for the experimental part: Narazaciclib was serially diluted with culture medium to 9 final assay concentrations from 0.01 to 100 μM. The assay was performed with both a negative control (vehicle) and a positive control (Cisplatin) in triplicate. The AML cell lines at log-growth phase were cultured in 96-well plates (black transparent flat bottom 96-well plate, Corning, Cat# 3603, FBS, ExCell Bio., Cat# FND500) in the presence of narazaciclib or Cisplatin at various concentrations for 72 h or 120 h (only for AML-193 cell line), followed by CTG readout according to the manufacturer’s instruction (CellTiter-Glo Luminescent Cell Viability Assay, Promega, Cat# G7573). Viability%=Lumdrug-Lummedium control/Lumcell control-Lummedium control×100%. Lumcell control-Lummedium controlas100%,LumMediumcontrolas0%. […]
Dose–response curves were fitted by a 4-parameter log-logistic model: Inhibition%=Bottom+Top-Bottom/1+10^logEC50-x∗HillSlope where Top and Bottom are the two asymptotes of the sigmoidal curve, EC50 is the relative IC50, concentration x is in log-10 scale and HillSlope is the slope at the EC50 point on the fitted curve. The fitted area under the curve (AUC) was calculated by: Inhibition%=Bottom+Top-Bottom/1+10^logEC50-x∗HillSlope where a represents the log10-transformed minimal concentration and b represents the log10-transformed maximal concentration. […]

Another experiment has as its system AM8096 AML-PDX. As to the kind of experiment: AM8096 systemic AML-PDX model. Type of experiment: in vivo, NOD/scid mice. As to the method: For systemic AML-PDX models, the model establishment and narazaciclib pharmacology experiment were performed essentially as described previously. Briefly, 2 × 10^6 AM7407 cells, or 2 × 10^6 AM7577 cells, or 2 × 10^6 AM5512 cells, or 1.65 × 10^6 AM8096 cells were inoculated intravenously into 4- to 5-week-old female NOD/scid mice for AML development. Engraftment was confirmed by the presence of circulating human CD45+ cells (anti-human CD45 antibody, Cat. 304038, Biolegend) in peripheral blood. Mice with successful engraftment of AML-PDX were randomized into different treatment groups (N = 6) and received their designated treatments. Narazaciclib was administrated orally or intraperitoneally at 10 mg/kg, or 30 mg/kg, or 100 mg/kg every day throughout the study, while Cytarabine was administrated intraperitoneally at 3 mg/kg every day. Following the initiation of designated treatments, leukemic burden was monitored by flow cytometry with anti-human CD45 antibody on the peripheral blood every week as well as on the peripheral blood, bone marrow cells and splenocytes of mice at sacrifice. Mice were sacrifice once the followings are observed: body weight loss over 20%, reduced motility and activity, labored breathing, ruffled coat, hunched back and severe dehydration.

For experiment [1], the system named is MV-4-11 subcutaneous xenograft. Nature of the experiment: MV-4-11 subcutaneous xenograft model. Particulars: narazaciclib 100 mg/kg intraperitoneally twice per week for 3 weeks. Type of experiment: in vivo, NOD/scid mice. The text has this: The subcutaneous cell line xenograft (CDX) models and systemic patient-derived xenograft (PDX) models of AML have been extensively described before. For the subcutaneous MV-4-11 CDX model, 5 × 10^6 MV-4-11 tumor cells harvested from exponential growth phase were mixed with Matrigel (1:1) and then inoculated into the right front flank region of 6- to 7-week-old female NOD/scid mice for tumor development. MV-4-11 tumor-bearing mice were randomized into 5 groups (N = 8) when their tumor volume reached approximately 100 mm^3 and received their designated treatments following randomization. Narazaciclib was administrated intraperitoneally at 100 mg/kg twice per week for 3 weeks, while Azacitidine was administrated intraperitoneally at 3 mg/kg twice per week for 3 weeks. For the subcutaneous Ba/F3-ETV6-CSF1R CDX model, 1 × 10^6 Ba/F3-ETV6-CSF1R tumor cells harvested from exponential growth phase were mixed with Matrigel (1:1) and then inoculated into the right front flank region of 6- to 8-week-old female NOD/scid mice for tumor development. Ba/F3-ETV6-CSF1R tumor-bearing mice were randomized into 5 groups (N = 6) when their tumor volume reached approximately 100 mm^3 and received their designated treatments following randomization. […] Tumor volume and body weight were measured at different time points and tumor growth inhibition (TGI) was used as index to determine the therapeutic efficacy.

Turning to `CN1CCN(c2ccc(Nc3ncc4cc(C#N)c(=O)n(C5CCCC5)c4n3)cc2)CC1` [Narazaciclib, narazaciclib], the half-maximal inhibitory concentration (IC50) in the experiment with AML cell lines was less than 1500 nM. In the experiment with AM8096 AML-PDX (AM8096), the “leukemic load in peripheral blood, spleen and bone marrow” value was “reduce the leukemic load in peripheral blood and spleen, but also the leukemic load in bone marrow”. The “leukemic burdens, dose dependence” value with AM8096 AML-PDX (AM8096, different dose levels) is “reduced the leukemic burdens in a dose-dependent manner”. Moreover, in the experiment on AM8096 AML-PDX (AM8096, narazaciclib 100 mg/kg intraperitoneally every day), the response of model result is “responded completely”. Also, in experiment [1], the “anti-AML activity (tumor growth)” value is given as “significant anti-AML activity”.
